Source: patent publication US20230364057A1, “BACTERIAL DNA GYRASE INHIBITORS AND METHODS OF USE THEREOF” (THE FLORIDA INTERNATIONAL UNIVERSITY BOARD OF TRUSTEES, priority 2022, published 2023)
“And” between values parts separate entries of the source, which are not always exact repeats. Equal values may be shown once. “Also recorded” adds a separate entry of the source. Read-outs that look alike come from different tables or passages of the source.

Columns and labels:
Mtb DNA gyrase = Mtb DNA gyrase (Mycobacterium tuberculosis (strain ATCC 25618 / H37Rv), UniProt P9WG45+P9WG47); assay: Mtb DNA gyrase inhibition assay (gel-based); format: biochemical; conditions: for IC50: Table 10, read-out: IC50 (µM) Mtb gyrase
Description: The IC50 against E. coli (A) and Mtb (C) gyrase were determined using the gel-based gyrase inhibition assays. The gyrase mediated DNA cleavage assays (B and D) were performed using pBR322. (A) 229 inhibits E. coli gyrase. Lane 1, rx pAB1. […] Lane 1, rx pAB1. […] 100 µM of CPDs were used. Symbols rx, nk, In, and sc represent relaxed, nicked, linear, and supercoiled DNA, respectively.
Agarose gel-based DNA gyrase inhibition assays were performed in 30 µL of 1 ×gyrase buffer (35 mM Tris-HCl, 24 mM KCl, 4 mM MgCl2, 2 mM DTT, 1.75 mM ATP, 0.1 mg/mL BSA, 6.5% glycerol, pH7.5) containing 400 ng of rx pAB1 at 37° C. 100 ng of DNA gyrase was used to supercoil the rx pAB1 in the presence of different concentrations of a gyrase inhibitor. After 15 minutes of incubation with the inhibitor at 37° C., all reactions were stopped with 1 µL of stop solution (3% SDS and 250 mM EDTA). Samples were analyzed by electrophoresis in 1% w/v agarose gels followed by ethidium bromide staining and photographed under UV light.

E. coli DNA gyrase [1] = molecular target: T1, E. coli DNA gyrase (Escherichia coli (strain K12), UniProt P0AES4+P0AES6); assay: biochemical; format: biochemical
E. coli DNA gyrase [2] = molecular target: T1, E. coli DNA gyrase; assay: E. coli DNA gyrase ATPase assay; format: biochemical; conditions: AB-MECA and gallates at 100 µM
Description: E. coli DNA gyrase ATPase assays were performed in 60 µL of 1 ×gyrase ATPase buffer (10 mM Tris.HCl (pH 7.5), 0.2 mM EDTA, 1 mM magnesium chloride, 1 mM DTT, and 2% (w/v) glycerol) containing 50 nM E. coli DNA gyrase, 200 ng rx pAB1, 0.8 mM Phosphoenol pyruvate, 1.2 units of Pyruvate kinase, 1.7 units of lactate dehydrogenase, and 0.4 mM of NADH at 37° C. After the reaction mixtures are incubated on ice for 5 minutes, 2 mM of ATP is added to initiate the reaction. Absorbance at OD340nm is monitored for up to 30 minutes at 37° C. in a spectrophotometer.

[3] = molecular target: human DNA topoisomerase I (Homo sapiens (Human), UniProt P11387); assay: Human DNA topoisomerase I inhibition; format: biochemical; conditions: gallates at 100 µM
human DNA topoisomerase I, sequence (P11387 whole entry): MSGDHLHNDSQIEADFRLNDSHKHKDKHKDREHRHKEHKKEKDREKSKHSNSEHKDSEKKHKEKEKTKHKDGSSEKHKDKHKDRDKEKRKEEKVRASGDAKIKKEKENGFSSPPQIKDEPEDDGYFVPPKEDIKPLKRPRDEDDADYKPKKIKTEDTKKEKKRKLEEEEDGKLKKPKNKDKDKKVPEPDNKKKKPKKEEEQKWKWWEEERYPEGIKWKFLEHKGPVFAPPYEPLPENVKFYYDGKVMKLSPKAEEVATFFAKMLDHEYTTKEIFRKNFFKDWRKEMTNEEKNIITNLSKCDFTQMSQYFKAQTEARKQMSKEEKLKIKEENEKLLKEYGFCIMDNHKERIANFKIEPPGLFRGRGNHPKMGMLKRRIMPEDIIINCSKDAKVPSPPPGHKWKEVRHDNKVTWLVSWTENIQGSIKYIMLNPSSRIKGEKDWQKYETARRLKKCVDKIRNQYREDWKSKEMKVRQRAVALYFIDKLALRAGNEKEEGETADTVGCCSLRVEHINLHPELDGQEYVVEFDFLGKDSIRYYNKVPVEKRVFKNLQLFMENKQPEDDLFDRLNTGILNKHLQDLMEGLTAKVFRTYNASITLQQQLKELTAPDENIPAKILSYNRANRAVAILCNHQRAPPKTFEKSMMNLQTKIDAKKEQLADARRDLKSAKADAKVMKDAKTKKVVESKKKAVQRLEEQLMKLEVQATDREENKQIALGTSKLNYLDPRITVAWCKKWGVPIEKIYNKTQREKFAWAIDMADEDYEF

[4] = molecular target: E. coli DNA topoisomerase I (Escherichia coli (strain K12), UniProt P06612); assay: E. coli DNA topoisomerase I inhibition; format: biochemical; conditions: gallates at 100 µM
E. coli DNA topoisomerase I, sequence (P06612 whole entry, looked up): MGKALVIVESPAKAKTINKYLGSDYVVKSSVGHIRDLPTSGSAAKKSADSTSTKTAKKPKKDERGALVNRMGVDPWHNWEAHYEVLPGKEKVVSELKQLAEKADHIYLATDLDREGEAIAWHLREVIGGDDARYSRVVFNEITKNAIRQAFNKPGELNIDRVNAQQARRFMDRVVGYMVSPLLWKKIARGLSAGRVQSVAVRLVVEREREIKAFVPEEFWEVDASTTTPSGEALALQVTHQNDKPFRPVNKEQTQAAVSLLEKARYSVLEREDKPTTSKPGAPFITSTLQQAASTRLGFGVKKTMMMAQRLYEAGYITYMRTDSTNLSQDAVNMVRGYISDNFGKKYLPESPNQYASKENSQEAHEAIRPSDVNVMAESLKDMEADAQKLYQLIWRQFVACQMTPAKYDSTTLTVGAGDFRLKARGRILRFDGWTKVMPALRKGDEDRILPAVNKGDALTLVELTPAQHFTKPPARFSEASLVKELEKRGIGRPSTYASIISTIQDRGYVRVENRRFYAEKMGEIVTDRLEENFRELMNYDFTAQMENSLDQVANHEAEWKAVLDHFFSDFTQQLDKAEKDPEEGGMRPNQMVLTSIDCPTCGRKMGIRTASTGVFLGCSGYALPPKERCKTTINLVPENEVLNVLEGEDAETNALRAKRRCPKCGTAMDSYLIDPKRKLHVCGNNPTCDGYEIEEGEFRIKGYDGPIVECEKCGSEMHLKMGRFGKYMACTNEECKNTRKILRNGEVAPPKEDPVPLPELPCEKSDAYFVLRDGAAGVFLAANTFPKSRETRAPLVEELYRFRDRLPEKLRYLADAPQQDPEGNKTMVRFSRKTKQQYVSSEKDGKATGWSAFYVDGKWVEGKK

[5] = molecular target: T2, E. coli DNA topoisomerase IV (Escherichia coli (strain K12), UniProt P0AFI2+P20083); assay: E. coli DNA topoisomerase IV relaxation assay (gel-based); format: biochemical
T2 sequence (P0AFI2 whole entry, looked up): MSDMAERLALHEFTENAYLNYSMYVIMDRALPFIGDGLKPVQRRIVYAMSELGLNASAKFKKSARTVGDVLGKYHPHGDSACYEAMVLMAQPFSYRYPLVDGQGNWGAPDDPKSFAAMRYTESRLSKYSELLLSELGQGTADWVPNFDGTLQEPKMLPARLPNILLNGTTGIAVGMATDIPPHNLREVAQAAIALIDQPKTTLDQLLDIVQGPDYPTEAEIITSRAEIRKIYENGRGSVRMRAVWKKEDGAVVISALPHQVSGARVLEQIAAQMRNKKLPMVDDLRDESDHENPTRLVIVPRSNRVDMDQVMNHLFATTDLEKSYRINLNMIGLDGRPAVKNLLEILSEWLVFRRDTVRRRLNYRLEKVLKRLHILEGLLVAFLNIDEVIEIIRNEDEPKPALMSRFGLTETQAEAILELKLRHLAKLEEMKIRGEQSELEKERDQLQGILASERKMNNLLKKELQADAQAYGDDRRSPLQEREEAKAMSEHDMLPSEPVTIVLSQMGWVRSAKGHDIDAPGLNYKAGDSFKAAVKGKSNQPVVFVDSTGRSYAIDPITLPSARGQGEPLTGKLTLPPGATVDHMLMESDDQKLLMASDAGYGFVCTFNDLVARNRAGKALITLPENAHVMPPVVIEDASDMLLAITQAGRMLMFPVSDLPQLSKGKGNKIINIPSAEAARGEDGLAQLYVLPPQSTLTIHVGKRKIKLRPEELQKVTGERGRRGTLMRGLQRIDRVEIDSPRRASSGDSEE
T2 sequence (P20083 whole entry, looked up): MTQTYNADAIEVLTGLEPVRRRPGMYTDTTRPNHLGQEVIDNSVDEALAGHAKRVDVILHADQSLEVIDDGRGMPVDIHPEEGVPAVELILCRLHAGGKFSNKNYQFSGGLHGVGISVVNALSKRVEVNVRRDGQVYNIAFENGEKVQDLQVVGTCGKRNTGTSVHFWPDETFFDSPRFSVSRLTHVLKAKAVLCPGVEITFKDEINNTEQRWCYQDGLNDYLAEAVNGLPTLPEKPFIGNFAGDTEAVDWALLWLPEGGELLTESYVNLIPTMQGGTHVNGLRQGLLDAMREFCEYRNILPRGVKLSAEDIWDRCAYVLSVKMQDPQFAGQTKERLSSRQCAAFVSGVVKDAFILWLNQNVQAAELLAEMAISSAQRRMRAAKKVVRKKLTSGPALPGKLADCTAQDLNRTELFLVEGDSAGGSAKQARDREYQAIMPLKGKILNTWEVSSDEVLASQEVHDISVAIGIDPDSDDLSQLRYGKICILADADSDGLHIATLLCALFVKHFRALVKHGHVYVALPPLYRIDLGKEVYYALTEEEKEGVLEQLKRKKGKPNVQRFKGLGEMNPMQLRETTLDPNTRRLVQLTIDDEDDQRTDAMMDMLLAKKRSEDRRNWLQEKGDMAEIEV
Description: (§1) Relaxation assays by E. coli DNA topoisomerase IV and the ATPase assays were performed. […] Lane 1 is supercoiled plasmid pAB1. […] The supercoiled, fluorescently-labeled plasmid pAB1_FL905 was used.

[6] = molecular target: human DNA topoisomerase IIα (Homo sapiens (Human), UniProt P11388); assay: Agarose gel-based inhibition assay against human DNA topoisomerase IIα; format: biochemical; conditions: gallates at 100 µM
human DNA topoisomerase IIα, sequence (P11388 whole entry): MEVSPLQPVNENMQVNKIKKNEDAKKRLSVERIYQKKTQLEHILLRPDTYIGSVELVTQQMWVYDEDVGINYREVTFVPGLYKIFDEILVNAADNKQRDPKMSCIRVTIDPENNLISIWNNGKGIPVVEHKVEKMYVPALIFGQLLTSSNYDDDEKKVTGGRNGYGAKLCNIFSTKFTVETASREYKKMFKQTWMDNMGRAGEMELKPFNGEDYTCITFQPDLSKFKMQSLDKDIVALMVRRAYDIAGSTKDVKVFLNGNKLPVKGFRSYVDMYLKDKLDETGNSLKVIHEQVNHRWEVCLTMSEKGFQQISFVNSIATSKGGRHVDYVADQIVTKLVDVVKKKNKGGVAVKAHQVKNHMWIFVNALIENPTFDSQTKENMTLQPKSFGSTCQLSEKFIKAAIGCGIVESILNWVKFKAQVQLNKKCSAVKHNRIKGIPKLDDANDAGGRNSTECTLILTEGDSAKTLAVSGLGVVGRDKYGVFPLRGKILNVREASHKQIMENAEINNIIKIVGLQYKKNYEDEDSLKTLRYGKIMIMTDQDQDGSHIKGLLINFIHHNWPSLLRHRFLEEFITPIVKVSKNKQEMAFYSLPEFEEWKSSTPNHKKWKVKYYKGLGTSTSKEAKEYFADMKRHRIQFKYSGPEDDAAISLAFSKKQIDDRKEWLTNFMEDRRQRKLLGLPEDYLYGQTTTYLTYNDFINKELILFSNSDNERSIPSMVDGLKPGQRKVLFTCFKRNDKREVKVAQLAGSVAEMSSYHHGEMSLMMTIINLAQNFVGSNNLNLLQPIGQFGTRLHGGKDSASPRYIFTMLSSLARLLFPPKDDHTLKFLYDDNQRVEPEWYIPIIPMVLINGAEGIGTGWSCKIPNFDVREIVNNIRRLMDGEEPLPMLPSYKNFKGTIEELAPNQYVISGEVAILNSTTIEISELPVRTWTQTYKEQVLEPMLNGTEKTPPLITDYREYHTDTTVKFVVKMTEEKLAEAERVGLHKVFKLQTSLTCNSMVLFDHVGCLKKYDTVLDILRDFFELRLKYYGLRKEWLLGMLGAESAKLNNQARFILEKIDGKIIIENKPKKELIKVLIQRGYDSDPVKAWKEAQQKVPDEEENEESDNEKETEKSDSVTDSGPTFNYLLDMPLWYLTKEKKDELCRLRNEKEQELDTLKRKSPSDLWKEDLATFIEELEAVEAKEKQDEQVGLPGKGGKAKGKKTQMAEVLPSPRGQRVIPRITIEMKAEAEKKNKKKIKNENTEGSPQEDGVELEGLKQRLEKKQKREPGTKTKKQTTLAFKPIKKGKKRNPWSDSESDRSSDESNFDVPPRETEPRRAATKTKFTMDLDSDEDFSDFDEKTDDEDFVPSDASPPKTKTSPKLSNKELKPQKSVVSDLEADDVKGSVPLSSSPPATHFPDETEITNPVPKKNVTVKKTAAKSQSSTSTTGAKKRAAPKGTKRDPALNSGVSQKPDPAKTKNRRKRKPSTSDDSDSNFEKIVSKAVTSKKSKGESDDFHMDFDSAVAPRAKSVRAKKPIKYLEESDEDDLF

E. coli (ATCC 25922) = assay: Minimum inhibitory concentration, broth microdilution; conditions: Escherichia coli
Description: (§2) Antibacterial minimum inhibitory concentrations (MICs) were obtained from three independent experiments using broth microdilution methods in 96-well plates according to Clinical and Laboratory Standards Institute guidelines. Cells were culture from singles colonies in MHIIB medium for 24 h at 37° C. in agitation (200 RPM). The cultures were then diluted using the same media to reach an OD600 of 0.1. Then, 50 µL of the diluted cultures were added to the plates holding 50 µL of serially diluted compounds in MHIIB. The plates were incubated at 37° C. for 20 h. The starting inoculum was fixated to 10^5 colony-forming units per ml.

S. aureus (ATCC 14775) = assay: as above; conditions: Staphylococcus aureus
Description: as §2

in vitro = conditions: human
M. abscessus = assay: MIC against M. abscessus; format: cell-based, Mycobacterium abscessus; conditions: Mycobacteroides abscessus
[7] = tested on: NCI panel of 60 cancer cell lines; conditions: up to 1 mM; results of NCI DTP; cited from earlier work
Mtb = Mtb whole cell assay (% inhibition, MIC); format: cell-based, Mycobacterium tuberculosis; conditions: Mycobacterium tuberculosis
E. coli imp = assay: microbe, parasite or virus in culture; conditions: Escherichia coli, read-out: MIC E. coli imp BAS3023
Description: as §2

MRSA = assay: Minimum inhibitory concentration, broth microdilution; conditions: Staphylococcus aureus
Description: as §2

B. subtilis (ATCC 6633) = assay: as above; conditions: Bacillus subtilis, ATCC6633, read-out: MIC B. subtilis ATCC 6633
[8] = molecular target: T2, E. coli DNA topoisomerase IV; assay: SDFQ-based DNA relaxation assay with E. coli DNA topoisomerase IV; format: biochemical
Description: as §1

E. coli DNA gyrase [9] = molecular target: T1, E. coli DNA gyrase; assay: SDFQ-based DNA gyrase inhibition assay; format: biochemical; conditions: Table 8; read-out: IC50 Gyrase SDFQ
Description: 100 ng of DNA gyrase was used to supercoil the rx pAB1_FL905 in the presence of different concentrations of a gyrase inhibitor. […] The IC50 values were estimated by nonlinear fitting of the following equation: […]
where F is the fluorescence intensity at the x concentration of an min inhibitor. Fmax and Fmin are the maximum and minimum fluorescence of the DNA sample, respectively. P is a slope parameter.

E. coli DNA gyrase [10] = molecular target: T1, E. coli DNA gyrase; assay: Agarose gel-based DNA gyrase inhibition assay; format: biochemical; conditions: Table 8; read-out: IC50 Gyrase Gel-based
Description: 100 ng of DNA gyrase was used to supercoil the rx pAB1 in the presence of different concentrations of a gyrase inhibitor. […] Samples were analyzed by electrophoresis in 1% w/v agarose gels followed by ethidium bromide staining and photographed under UV light.

E. coli DNA gyrase [11] = molecular target: T1, E. coli DNA gyrase; assay: SDFQ HTS primary assay (1536-well, pAB1_FL905); format: biochemical; conditions: for inhibition at 5 µM: read-out: inhibition activities against E. coli DNA gyrase
Description: SDFQ HTS primary assay using pAB1_FL905 was performed in 2 µL of (1 xDNA gyrase buffer: 20 mM Tris-Acetate pH 7.9, 50 mM KAc, 10 mM MgCl2, 2 mM DTT, 1 mM ATP, 0.1 mg/mL BSA). […] 3) Spun plate at 800 rpm for 30 seconds.

E. coli DNA gyrase [12] = molecular target: T1, E. coli DNA gyrase; assay: DNA gyrase mediated DNA cleavage assay; format: biochemical; conditions: pBR322
Description: 250 ng of supercoiled pBR322 plasmid were incubated with 50 nM of E. coli DNA gyrase in reactions containing 35 mM Tris-HCl, 24 mM KCl, 4 mM MgCl2, 2 mM DTT, 0.1 mg/mL BSA, 6.5% glycerol, and 1.75 mM ATP, in presence of 200 µM of compounds, at 37° C. for 15 min. Then, 0.2% (w/v) of SDS and 0.1 mg/mL proteinase K were added, and samples were incubated at 37° C. for 1 h. […] Samples were examined by electrophoresis in 1% w/v agarose gel containing 0.5 µg/mL ethidium bromide and photographed under UV light.

E. coli DNA gyrase [13] = molecular target: T1, E. coli DNA gyrase; conditions: known inhibitors of the LOPAC library; read-out: inhibition IC50 against E. coli DNA gyrase; cited from earlier work
[14] = ATCC14775, read-out: MIC (µM) Sa
[15] = read-out: IC50 against E. coli DNA gyrase

With `CNC(=O)[C@H]1O[C@@H](n2cnc3c(NCc4ccc(N)cc4)ncnc32)[C@H](O)[C@@H]1O` [AB-MECA, reference compound] the “inhibition of Mtb DNA gyrase activities” value (Mtb DNA gyrase) was “did not inhibit”, the “inhibition of E. coli DNA gyrase activities” value (E. coli DNA gyrase [1]) was “does not inhibit” and the “inhibition of the ATPase activities of E. coli DNA gyrase” value (E. coli DNA gyrase [2]) was “did not inhibit”. The “inhibition of human DNA topoisomerase I” value [3] was “did not inhibit”, the “inhibition of E. coli DNA topoisomerase I” value [4] was “did not inhibit” and the “inhibition of E. coli DNA topoisomerase IV” value [5] was “did not inhibit”. For the same molecule, the “inhibition of human DNA topoisomerase IIα” value [6] was “did not inhibit”.
For `C[n+]1c(-c2ccc(/C=C/C=N/NC(=O)c3ccc(C(=O)N/N=C/c4ccc(-c5cn6ccccc6[n+]5C)cc4)cc3)cc2)cn2ccccc21` [Compound 261], the MIC (E. coli (ATCC 25922); ATCC25922, read-out: MIC (µM) Ec, E. coli strain ATCC25922) was 50 µM, the IC50 (Mtb DNA gyrase) was 9.3 µM and the MIC (S. aureus (ATCC 14775); [14]) was > 200 µM. For the same molecule, the IC50 (in vitro) was > 200 µM, the MIC (M. abscessus) was 22.9 µM and the “cytotoxicity against the NCI panel of 60 cancer cell lines” value [7] was “no cytotoxicity”. The MIC (Mtb) was 109 µM.
With `C[n+]1c(-c2ccc(NC(=O)c3ccc(C(=O)Nc4ccc(-c5cn6ccccc6[n+]5C)cc4)cc3)cc2)cn2ccccc21` [Compound 263] the IC50 (Mtb DNA gyrase) was 7.7 µM, the MIC (S. aureus (ATCC 14775); [14]) was 0.39 µM and the IC50 (in vitro) was > 200 µM. For the same molecule, the MIC (M. abscessus) was > 200 µM, the “cytotoxicity against the NCI panel of 60 cancer cell lines” value [7] was “no cytotoxicity” and the MIC (Mtb) was 11.3 µM.
With `CNC(=O)[C@H]1O[C@@H](n2cnc3c(NCc4cccc(I)c4)ncnc32)[C@H](O)[C@@H]1O` [IB-MECA, reference compound] the “inhibition of Mtb DNA gyrase activities” value (Mtb DNA gyrase) was “did not inhibit”, the IC50 (E. coli DNA gyrase [1]; [15]) was 50.7 µM and the “inhibition of the ATPase activities of E. coli DNA gyrase” value (E. coli DNA gyrase [2]) was “ATP competitive inhibitors; also recorded: inhibition”. The “inhibition of human DNA topoisomerase I” value [3] was “did not inhibit”, the “inhibition of E. coli DNA topoisomerase I” value [4] was “did not inhibit” and the “inhibition of E. coli DNA topoisomerase IV” value [5] was “did not inhibit”. The “inhibition of human DNA topoisomerase IIα” value [6] was “did not inhibit”.
With `O=C(Oc1ccccc1)c1cc(O)c(O)c(O)c1` [Phenyl gallate, phenyl gallate] the MIC (E. coli (ATCC 25922); ATCC25922, read-out: MIC E coli ATCC 25922, Table 9) was > 200 µM, the MIC (E. coli imp) was > 200 µM and the MIC (MRSA; ATCC33591 / MRSA, read-out: MIC MRSA ATCC 33591) was 200 µM. The MIC (MRSA; ATCCBAA44 / MRSA, read-out: MIC S. aureus (MRSA) ATCC BAA44) was 64 µg/mL, the MIC (B. subtilis (ATCC 6633)) was > 64 µg/mL and > 200 µM and the MIC (S. aureus (ATCC 14775); ATCC14775, read-out: MIC S. aureus ATCC 14775) was 64 µg/mL and 200 µM. The IC50 ([5]; IC50 Topoisomerase IV Gel-based, Table 8) was > 100 µM, the IC50 [8] was > 100 µM and the IC50 (E. coli DNA gyrase [9]) was > 100 µM. The IC50 (E. coli DNA gyrase [10]) was > 100 µM.
With `O=C(O)C1=CC(=C(c2ccc(O)c(C(=O)O)c2)c2ccc(O)c(C(=O)O)c2)C=CC1=O` [aurintricarboxylic acid] the inhibition at 5 µM (E. coli DNA gyrase [11]) was > 40%.
With `CNC(=O)[C@H]1O[C@@H](n2cnc3c(NCc4cccc(I)c4)nc(Cl)nc32)[C@H](O)[C@@H]1O` [chloro-IB-MECA, reference compound] the “inhibition of Mtb DNA gyrase activities” value (Mtb DNA gyrase) was “did not inhibit”, the IC50 (E. coli DNA gyrase [1]; IC50 against E. coli DNA gyrase) was 2.4 µM and the IC50 (E. coli DNA gyrase [1]; [15]) was < 5 µM. For the same molecule, the “inhibition of the ATPase activities of E. coli DNA gyrase” value (E. coli DNA gyrase [2]) was “ATP competitive inhibitors; also recorded: inhibition”, the “inhibition of human DNA topoisomerase I” value [3] was “did not inhibit” and the “inhibition of E. coli DNA topoisomerase I” value [4] was “did not inhibit”. For the same molecule, the “inhibition of E. coli DNA topoisomerase IV” value [5] was “did not inhibit”, the “E. coli DNA gyrase-mediated DNA breaks and nicking” value (E. coli DNA gyrase [12]) was “did not DNA double stranded DNA breaks” and the “inhibition of human DNA topoisomerase IIα” value [6] was “did not inhibit”.
For `CCn1cc(C(=O)O)c(=O)c2ccc(C)nc21` [nalidixic acid], the IC50 (E. coli DNA gyrase [13]) is listed as > 30 µM.
With `CC1COc2c(N3CCN(C)CC3)c(F)cc3c(=O)c(C(=O)O)cn1c23` (stereo not drawn) [ofloxacin] the inhibition at 5 µM (E. coli DNA gyrase [11]) was > 40%.
For `CCn1cc(C(=O)O)c(=O)c2cc3c(cc21)OCO3` [oxolinic acid], the IC50 (E. coli DNA gyrase [13]) is listed as > 30 µM.
With `N[C@@H]1[C@H]2CN(c3nc4c(cc3F)c(=O)c(C(=O)O)cn4-c3ccc(F)cc3F)C[C@@H]12` [trovafloxacin] the “inhibition activities against E. coli DNA gyrase” value (E. coli DNA gyrase [11]; LOPAC library, 5 µM) was “more than 40%”.
